Assay results reported in patent US20220305115A1 (JANSSEN SCIENCES IRELAND UNLIMITED COMPANY, priority 2019, published 2022).

Legend:
Type in all cases: cell-based
TNFα = experiment: PBMC cytokine profiling assay, TNFα induction; details: Homo sapiens, 24 h, human PBMCs, 24 hours incubation
Procedure: (§1) Compounds were dissolved and stored in DMSO (Sigma-Aldrich, St. Louis, Mo.) at 10 mM concentration.
(§2) Cryopreserved human PBMCs isolated from healthy donors were purchased from StemCell Technologies (Vancouver, Canada). Cell culture medium used was RPMI with L-Glutamine (Mediatech, Manassas, Va.) supplemented with 10% fetal bovine serum (Hyclone, GE Healthcare, Logan, Utah) and Penicillin-Streptomycin (Mediatech). Human TNFα, IL12p40, and IFNα2a 384-well Assay capture plates, standards, buffers and processing reagents were obtained from MesoScale Discovery Technologies (MSD; Rockville, Md.).
(§3) Cryopreserved human PBMCs (1×10e8 cells/ml) were thawed at 37° C. and resuspended in 25 mL warm cell culture medium. The cells were pelleted at 200×g (Beckman Avanti J-E) for 5 min and resuspended in 20 mL of fresh culture media. Cells were counted using a Cellometer (Nexcelcom Bioscience), adjusted to 2×10e6 cells, and incubated for 2 hours in an incubator set at 37° C., 5% CO2 to recover from cryopreservation. […]
(§4) Using a Biomek FX 384 well pipetting station (Beckman), conditioned culture medium (CCM) from the assay plate was transferred to MSD capture plates customized for each cytokine. […] MSD Read Buffer diluted to 2× in deionized water and 35 μL/well was added via Biomek FX instrument. The plates were read immediately in a MSD6000 reader. […]

IL12p40 = experiment: PBMC cytokine profiling assay, IL12-p40 induction; details: Homo sapiens, 24 h, human PBMCs, 24 hours incubation
Procedure: as §1, §2, §3, §4

IFNα = experiment: PBMC cytokine profiling assay, IFNα induction; details: Homo sapiens, 24 h, human PBMCs, 24 hours incubation
Procedure: as §1, §2, §3, §4

human TLR8 = target: T1, human TLR8 (Homo sapiens, UniProt Q9NR97); experiment: HEK-Blue human TLR8 cell SEAP reporter assay (NF-κB activation); details: HEK-Blue human TLR8 cells, stimulation for 20 hours, Quanti Blue read at 640 nm
T1 construct: host or cells: HEK-Blue human TLR8 cells (HEK293-derived reporter line)
T1 sequence (Q9NR97 27-1041): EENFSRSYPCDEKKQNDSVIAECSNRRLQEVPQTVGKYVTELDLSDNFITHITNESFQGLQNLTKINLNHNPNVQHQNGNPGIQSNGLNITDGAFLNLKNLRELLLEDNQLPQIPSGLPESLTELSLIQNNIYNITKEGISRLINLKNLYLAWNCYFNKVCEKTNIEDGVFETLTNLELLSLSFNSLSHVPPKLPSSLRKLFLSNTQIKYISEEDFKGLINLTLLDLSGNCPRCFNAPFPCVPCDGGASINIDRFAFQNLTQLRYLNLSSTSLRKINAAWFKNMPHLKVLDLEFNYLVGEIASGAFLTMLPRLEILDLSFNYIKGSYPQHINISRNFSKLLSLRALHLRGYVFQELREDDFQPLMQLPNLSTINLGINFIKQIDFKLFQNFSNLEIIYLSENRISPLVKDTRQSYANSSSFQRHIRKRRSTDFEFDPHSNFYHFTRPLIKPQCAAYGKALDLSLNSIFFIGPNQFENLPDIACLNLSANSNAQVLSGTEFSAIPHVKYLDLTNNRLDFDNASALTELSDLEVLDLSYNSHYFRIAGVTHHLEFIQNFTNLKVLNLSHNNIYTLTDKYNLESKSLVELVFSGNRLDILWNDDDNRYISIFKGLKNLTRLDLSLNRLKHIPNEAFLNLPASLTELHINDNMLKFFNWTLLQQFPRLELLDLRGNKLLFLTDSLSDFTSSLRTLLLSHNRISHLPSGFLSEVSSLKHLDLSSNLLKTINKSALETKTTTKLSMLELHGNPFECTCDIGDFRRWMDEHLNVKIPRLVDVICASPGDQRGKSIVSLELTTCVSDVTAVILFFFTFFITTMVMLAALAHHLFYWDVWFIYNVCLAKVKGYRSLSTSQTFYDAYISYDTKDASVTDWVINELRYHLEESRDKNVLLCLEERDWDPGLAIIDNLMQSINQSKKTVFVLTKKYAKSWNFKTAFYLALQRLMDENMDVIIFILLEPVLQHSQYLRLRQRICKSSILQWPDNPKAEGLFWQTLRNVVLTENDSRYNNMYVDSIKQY
Text: (§5) For TLR8 and TLR7 activity testing, HEK-Blue human TLR8 or TLR7 cells (Invivogen, San Diego, Calif., USA) are used, respectively. These cells are designed for studying the stimulation of human TLR8 or TLR7 by monitoring the activation of NF-κB. A SEAP (secreted embryonic alkaline phosphatase) reporter gene is placed under the control of the IFN-b minimal promoter fused to five NF-κB and AP-1-binding sites. Therefore the reporter expression is regulated by the NF-κB promoter upon stimulation of human TLR8 or TLR7 for 20 hours. The cell culture supernatant SEAP reporter activity was determined using Quanti Blue kit (Invivogen, San Diego, Ca, USA) at a wavelength of 640 nm, a detection medium that turns purple/blue in the presence of alkaline phosphatase. EC50 values were determined using Activity Base analysis (ID Business Solution, Limited).

human TLR7 = target: T2, human TLR7 (Homo sapiens, UniProt Q9NYK1); experiment: HEK-Blue human TLR7 cell SEAP reporter assay (NF-κB activation); details: HEK-Blue human TLR7 cells, stimulation for 20 hours, Quanti Blue read at 640 nm
T2 construct: host or cells: HEK-Blue human TLR7 cells (HEK293-derived reporter line)
T2 sequence (Q9NYK1 27-1049): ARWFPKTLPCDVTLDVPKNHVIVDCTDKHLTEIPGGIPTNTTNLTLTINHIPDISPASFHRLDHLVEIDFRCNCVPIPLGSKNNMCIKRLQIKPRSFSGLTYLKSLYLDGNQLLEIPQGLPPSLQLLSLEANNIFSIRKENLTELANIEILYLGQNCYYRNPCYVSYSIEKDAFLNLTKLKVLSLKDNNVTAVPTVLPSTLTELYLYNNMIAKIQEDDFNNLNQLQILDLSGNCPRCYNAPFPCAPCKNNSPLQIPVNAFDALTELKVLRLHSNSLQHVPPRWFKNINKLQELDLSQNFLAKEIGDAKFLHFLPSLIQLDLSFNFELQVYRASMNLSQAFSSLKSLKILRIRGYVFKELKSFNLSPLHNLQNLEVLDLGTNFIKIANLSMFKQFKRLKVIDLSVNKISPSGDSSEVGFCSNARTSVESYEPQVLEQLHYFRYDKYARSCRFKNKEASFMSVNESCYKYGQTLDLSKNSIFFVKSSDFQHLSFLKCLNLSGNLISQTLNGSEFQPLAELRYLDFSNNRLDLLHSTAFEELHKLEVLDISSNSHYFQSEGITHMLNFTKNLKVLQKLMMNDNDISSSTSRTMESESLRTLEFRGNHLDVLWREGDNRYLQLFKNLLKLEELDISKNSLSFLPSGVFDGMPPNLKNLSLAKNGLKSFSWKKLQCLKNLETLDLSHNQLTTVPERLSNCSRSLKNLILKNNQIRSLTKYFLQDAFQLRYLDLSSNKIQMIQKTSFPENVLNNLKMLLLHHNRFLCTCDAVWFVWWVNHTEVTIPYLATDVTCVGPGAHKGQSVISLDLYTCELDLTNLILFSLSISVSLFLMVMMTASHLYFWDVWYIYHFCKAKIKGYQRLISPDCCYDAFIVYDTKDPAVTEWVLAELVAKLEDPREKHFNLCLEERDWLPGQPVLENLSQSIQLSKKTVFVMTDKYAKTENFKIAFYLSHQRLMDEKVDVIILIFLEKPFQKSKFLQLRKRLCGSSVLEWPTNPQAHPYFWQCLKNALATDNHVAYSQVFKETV
Text: as §5

EC50 (human TLR8)	EC50 (human TLR7)	SMILES	AC50 (TNFα)	AC50 (IL12p40)	AC50 (IFNα)
		CCCC[C@@H](Nc1nc(N)nc2cccnc12)[C@H](C)O [Compound 86]	2.9 µM	2.4 µM	37.4 µM
0.077 µM	1.86 µM	CCCN(CCC)C(=O)C1=Cc2ccc(-c3cccnc3)cc2N=C(N)C1 [VTX-133, reference compound]			
0.039 µM	3.61 µM	CCCN(CCC)C(=O)C1=Cc2ccc(-c3cncnc3)cc2N=C(N)C1 [VTX-135, reference compound]			
